The values that follow come from patent US20240041875A1 (priority 2022, published 2024).

Data set [1] concerns VSV-SARS-CoV-2. The data set is classed as cell-based.
A further data set deals with SARS-CoV-2 WT strain. The arrangement: species or system K18-hACE2 mice. The note with it: mouse, in vivo.
A further data set has as its system A549-ACE2 cells. Kind of data set: Cytotoxicity to A549-ACE2 cells, CellTiter-Glo Assay. The data set is classed as cell-based, human. The following applies: 0.1625 nM to 2.5 nM, 24 h. How it is done: FIG. 6. Ponatinib cytotoxicity to A549-ACE2 cells at the concentration range of 0.1625 nM to 2.5 nM). A549-ACE2 cells were treated with ponatinib for 24 h and the cell viability was detected by CellTiter-Glo Assay.

The test system of a further data set is SARS-CoV-2. The data set is classed as cell-based.
The test system of data set [2] is VSV-SARS-CoV-2. The data set is classed as cell-based. The source holds these as a separate data set.

As to `Cc1ccc(C(=O)Nc2ccc(CN3CCN(C)CC3)c(C(F)(F)F)c2)cc1C#Cc1cnc2cccnn12` [ponatinib], the “screening outcome, inhibition of infection by VSV-SARS-CoV-2” value with VSV-SARS-CoV-2 [1] is on record as “several candidates including ponatinib”. For the same compound, in the data set with SARS-CoV-2 WT strain, the “body weight of infected mice” value is “two of the five mice treated with ponatinib started to regain body weight on day 7”, the “expression of SARS-CoV-2 nucleocapsid protein (NP) in lung tissues (IHC)” value was “markedly lower”, the “survival of infected mice” value is on record as “lived significantly longer than the control group” and the “survival of infected mice at different doses” value was “Dose-dependent effect”. Moreover, in the data set on SARS-CoV-2 WT strain, the “viral RNA copies in the lung (quantitative real-time PCR)” value is reported as “much lower than in the PBS group” and the “viral titer in the lung (plaque assay)” value is “significantly decreased the viral load in the lung”. In addition, the A549-ACE2 cell viability entry in the data set with A549-ACE2 cells was “no effect on A549-ACE2 cell viability”. Moreover, in the data set on SARS-CoV-2, the “reduction of viral infection by live SARS-CoV-2 (plaque assay)” value is reported as “significantly reduced viral infection”. For the same compound, in the data set on VSV-SARS-CoV-2 [2], the “inhibition of VSV-SARS-CoV-2 infectivity” value is listed as “significantly inhibited VSV-SARS-CoV-2 in a dose-dependent manner”; the “inhibition of VSV-SARS-CoV-2 under four treatment conditions (concomitant, virus pre-incubated, cells pretreated, treatment after infection)” value was “could inhibit VSV-SARS-CoV-2 under all these conditions”; the “inhibition of viral infection / plaque formation, side-by-side comparison” value is on record as “inhibited plaque formation”.
For `Cc1ccc(C(=O)Nc2ccc(CN3CCN(C)CC3)c(C(F)(F)F)c2)cc1C#Cc1cnc2[nH]ncc2c1` [olverembatinib], the “inhibition of viral infection / plaque formation, side-by-side comparison” value with VSV-SARS-CoV-2 [2] was “not olverembatinib treatment inhibited plaque formation”.
